Test results reported in patent US4822790A, “1-Sulfo-2-oxoazetidine derivatives and their production” (Takeda Chemical Industries, Ltd., priority 1980, dated 1989).

Experiments:
[1] = target: T1, β-lactamase produced by Enterobacter cloacae PN 1282 (Enterobacter cloacae, UniProt P05364); assay: Inhibitor concentration required to inhibit the β-lactamase (cephalosporinase) activity by 50%, micro-iodometric method; type: biochemical; details: 0.05M phosphate buffer (pH 7), 30° C., 10 min preincubation, cephalothin 0.1 mM, read-out: I50 (inhibitor concentration required to inhibit the enzyme activity by 50%) (converted)
T1 construct: cephalothin substrate, micro-iodometric
T1 sequence (P05364 21-381): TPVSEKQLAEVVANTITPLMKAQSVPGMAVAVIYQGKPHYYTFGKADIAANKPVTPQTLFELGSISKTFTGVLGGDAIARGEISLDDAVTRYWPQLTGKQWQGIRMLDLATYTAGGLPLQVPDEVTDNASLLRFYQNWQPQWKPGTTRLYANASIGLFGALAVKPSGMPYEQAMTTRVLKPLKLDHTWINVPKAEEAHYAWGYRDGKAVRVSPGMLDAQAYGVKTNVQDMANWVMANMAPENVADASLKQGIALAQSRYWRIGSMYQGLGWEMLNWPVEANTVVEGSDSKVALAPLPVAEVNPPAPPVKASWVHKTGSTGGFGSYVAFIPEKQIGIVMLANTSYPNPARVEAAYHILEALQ
Method: "Determination of the inhibitor concentration required to inhibit the enzyme activity by 50%"
The β-lactamase produced by Enterobacter cloacae PN 1282 is used as a typical example of cephalosporinase. The β-lactamase is incubated in 0.05M phosphate buffer (pH 7) with an appropriate dilution of an inhibitor preparation at 30° C. for 10 minutes. Cephalothin is then added in an amount sufficient to produce a final concentration of 0.1 mM, and the enzymatic reaction is allowed to proceed for 10 minutes. The enzyme activity is determined by the micro-iodometric method [Journal of general Microbiology, vol. 33, page 121 (1963)]. Hereinafter, the inhibitor concentration required to inhibit the enzyme activity by 50% is expressed as I50.

[2] = tested on: Pseudomonas morganii IFO 3168; assay: Antibacterial test (MIC), Pseudomonas morganii IFO 3168; type: cell-based; details: IFO3168, medium TSA, read-out: Minimum inhibitory concentration (MIC)
Excerpt: (§1) The following is media and compounds employed in the antibacterial test.
(§2) TSA=Trypticase soy agar [Baltimore Biologicals (U.S.A.)]
(§3) B-TSA=Blood trypticase soy agar

Escherichia coli 0-111 = assay: Antibacterial test (MIC), Escherichia coli 0-111; type: cell-based; details: Escherichia coli, 0111; medium TSA; read-out: Minimum inhibitory concentration (MIC)
Excerpt: as §1, §2, §3

[3] = tested on: Proteus vulgaris IFO 3988; assay: Antibacterial test (MIC), Proteus vulgaris IFO 3988; type: cell-based; details: Proteus vulgaris, IFO3988, read-out: Minimum inhibitory concentration (MIC)
Excerpt: as §1, §2, §3

Klebsiella pneumoniae DT = assay: Antibacterial test (MIC), Klebsiella pneumoniae DT; type: cell-based; details: Klebsiella pneumoniae, read-out: Minimum inhibitory concentration (MIC)
Excerpt: as §1, §2, §3

| SMILES | IC50 [1] | further results |
| --- | --- | --- |
| CON=C(C(=O)N[C@@H]1C(=O)N(S(=O)(=O)O)[C@H]1Sc1ccccc1)c1csc(N)n1 | 59 nM | – |
| CCN1CCN(C(=O)N[C@@H](C(=O)NC2(OC)CN(S(=O)(=O)O)C2=O)c2ccccc2)C(=O)C1=O (single isomer, unassigned) [Compound C, Sodium 3-[D(-)-N-(4-ethyl-2,3-dioxo-1-piperazinocarbonyl)phenylglycinamido]-3-methoxy-2-oxoazetidine-1-sulfonate] | – | MIC [2]: > 100 µg/mL; MIC (Escherichia coli 0-111): 12.5 µg/mL; MIC [3]: 12.5 µg/mL; MIC (Klebsiella pneumoniae DT): 12.5 µg/mL |
| CS[C@@H]1[C@H](NC(=O)C(=NOC(C)(C)C(=O)O)c2csc(N)n2)C(=O)N1S(=O)(=O)O | 406 nM | – |
| CON=C(C(=O)N[C@@H]1C(=O)N(S(=O)(=O)O)[C@@H]1SC)c1csc(N)n1 | 759 nM | – |
| CS[C@@H]1[C@H](NC(=O)c2c(-c3c(Cl)cccc3Cl)noc2C)C(=O)N1S(=O)(=O)O | 96.5 nM | – |
